Data on 13 molecules can be found in ChEMBL document CHEMBL3244013, “Central nervous system activity of a novel class of annelated 1,4-benzodiazepines, aminomethylene-2,4-dihydro-1H-imidazo[1,2-a][1,4]benzodiazepin-1-ones” (J Med Chem, 1977).

The ED50 is the dose at which the effect has come halfway, by size or by number of responders.

For data set [1], the system named is Mus musculus. Description: Anticonvulsant activity in po dosed CD-1 mouse assessed as protection against pentylenetetrazole-induced convulsion. It counts as functional. The following applies: CD-1, po.
Data set [2] has as its system Mus musculus. The experiment in a line: Potentiation of hexobarbital-induced sedative effect in po dosed CD-1 mouse assessed as loss of righting reflex after 30 secs. It counts as functional. The following applies: CD-1, po.
The subject of data set [3] is Mus musculus. Description: Antianxiety activity in po dosed CD-1 mouse assessed as inhibition of foot shock-induced aggression after 30 mins relative to control. It is filed as functional. The following applies: CD-1, po, 0.5 h.
The subject of data set [4] is Mus musculus. Description: Anticonvulsant activity in po dosed CD-1 mouse assessed as protection against strychnine-induced convulsion after 30 mins. It is filed as functional. The following applies: CD-1, po, 0.5 h.
Data set [5] deals with Mus musculus. Description: Potentiation of chlorprothixene-induced sedative effect in po dosed CD-1 mouse assessed as loss of righting reflex. It is filed as functional. To be noted: CD-1, po.
The subject of data set [6] is Mus musculus. Description: Induction of muscle relaxation in po dosed CD-1 mouse after 30 mins by rotary drum test. It counts as functional. The following applies: CD-1, po, 0.5 h.
The test system of data set [7] is Mus musculus. The experiment in a line: Acute toxicity in po dosed CD-1 mouse assessed as mortality after 24 hrs. It counts as organism-based. To be noted: in vivo.
Data set [8] concerns Mus musculus. Description: Anticonvulsant activity in po dosed CD-1 mouse assessed as protection against maximal electroshock-induced convulsion. It counts as functional. To be noted: CD-1, po.

As to `CN1CCN(/C=C2\N=C3CN=C(c4ccccc4F)c4cc(Cl)ccc4N3C2=O)CC1`, the ED50 in data set [1] came out at 0.115 mg/kg; in data set [2], 0.21 mg/kg; in data set [3], 0.34 mg/kg; in data set [4], 1.25 mg/kg; in data set [5], 1.35 mg/kg; in data set [6], 2.6 mg/kg. Besides, the ED50 in data set [7] is above 1000 mg/kg; in data set [8] it was 0.27 mg/kg.
Take `CC(C)N1CCN(/C=C2\N=C3CN=C(c4ccccc4)c4cc(Cl)ccc4N3C2=O)CC1`: the ED50 in data set [1] came out at 1.25 mg/kg; in data set [2], 6.6 mg/kg; in data set [3], 2.1 mg/kg; in data set [4], 5.8 mg/kg; in data set [5], 6.4 mg/kg; in data set [6], 12 mg/kg. Moreover, the median effective dose (ED50) in data set [7] was above 1000 mg/kg; in data set [8], 7 mg/kg.
Regarding `O=C1/C(=C/N2CCN(c3ccccc3)CC2)N=C2CN=C(c3ccccc3)c3cc(Cl)ccc3N12`, the ED50 in data set [1] was 26 mg/kg; in data set [2] it was above 50 mg/kg; in data set [3], above 50 mg/kg; in data set [4], above 50 mg/kg; in data set [5], above 50 mg/kg; in data set [6], above 50 mg/kg. Also, the 50% effective dose (ED50) was above 1000 mg/kg in data set [7] and above 50 mg/kg in data set [8].
For the molecule `O=C1/C(=C/N2CCSCC2)N=C2CN=C(c3ccccc3)c3cc(Cl)ccc3N12`, the ED50 in data set [1] was above 50 mg/kg; in data set [2], above 50 mg/kg; in data set [3] it was above 20 mg/kg; in data set [4], above 50 mg/kg; in data set [5] it was above 50 mg/kg; in data set [6] it was above 50 mg/kg. In addition, the ED50 is above 1000 mg/kg in data set [7] and above 50 mg/kg in data set [8].
For the molecule `CN1CCN(/C=C2\N=C3CN=C(c4ccccc4)c4cc([N+](=O)[O-])ccc4N3C2=O)CC1`, the ED50 is 0.92 mg/kg in data set [1]; 3.6 mg/kg in data set [2]; 2.2 mg/kg in data set [3]; 6.6 mg/kg in data set [4]; 4.5 mg/kg in data set [5]; 8.6 mg/kg in data set [6]. The 50% effective dose (ED50) was above 1000 mg/kg in data set [7] and 4.2 mg/kg in data set [8].
`CN1CCN(/C=C2\N=C3CN=C(c4ccccc4Cl)c4cc(Cl)ccc4N3C2=O)CC1`: the median effective dose (ED50) in data set [1] amounted to 0.165 mg/kg; in data set [2], 0.074 mg/kg; in data set [3] it was 0.2 mg/kg; in data set [4], 1.8 mg/kg; in data set [5], 1.6 mg/kg; in data set [6] it was 0.78 mg/kg. Moreover, the ED50 was above 1000 mg/kg in data set [7] and 2.1 mg/kg in data set [8].
As to `CN1CCN(/C=C2\N=C3CN=C(c4ccccc4F)c4cc([N+](=O)[O-])ccc4N3C2=O)CC1`, the ED50 in data set [1] is 0.13 mg/kg; in data set [2], 0.8 mg/kg; in data set [3] it was 0.26 mg/kg; in data set [4], 0.46 mg/kg; in data set [5], 1.6 mg/kg; in data set [6] it was 1.5 mg/kg. In addition, the ED50 in data set [7] was above 1000 mg/kg; in data set [8], 1.2 mg/kg.
In the case of `CCN1CCN(/C=C2\N=C3CN=C(c4ccccc4Cl)c4cc(Cl)ccc4N3C2=O)CC1`, the 50% effective dose (ED50) in data set [1] was 0.087 mg/kg; in data set [2] it was 2.5 mg/kg; in data set [3] it was 0.5 mg/kg; in data set [4] it was 2.3 mg/kg; in data set [5] it was 1.2 mg/kg; in data set [6] it was 0.56 mg/kg. The median effective dose (ED50) was above 1000 mg/kg in data set [7] and 2.2 mg/kg in data set [8].
Take `CCN1CCN(/C=C2\N=C3CN=C(c4ccccc4F)c4cc(Cl)ccc4N3C2=O)CC1`: the 50% effective dose (ED50) in data set [1] was 0.155 mg/kg; in data set [2], 2.8 mg/kg; in data set [3], 0.48 mg/kg; in data set [4] it was 1.6 mg/kg; in data set [5], 2.35 mg/kg; in data set [6], 0.7 mg/kg. In addition, the ED50 in data set [7] was above 1000 mg/kg; in data set [8], 1.55 mg/kg.
On to `CCN1CCN(/C=C2\N=C3CN=C(c4ccccc4Cl)c4cc([N+](=O)[O-])ccc4N3C2=O)CC1`, for which the median effective dose (ED50) in data set [1] stood at 0.15 mg/kg; in data set [2] it was 0.8 mg/kg; in data set [3], 0.34 mg/kg; in data set [4] it was 2.8 mg/kg; in data set [5], 0.99 mg/kg; in data set [6] it was 0.46 mg/kg. Also, the ED50 in data set [7] is above 1000 mg/kg; in data set [8], 2.8 mg/kg.
For `CCN1CCN(/C=C2\N=C3CN=C(c4ccccc4F)c4cc([N+](=O)[O-])ccc4N3C2=O)CC1`, the ED50 was 0.18 mg/kg in data set [1]; 0.72 mg/kg in data set [2]; 0.64 mg/kg in data set [3]; 3.75 mg/kg in data set [4]; 4 mg/kg in data set [5]; 0.37 mg/kg in data set [6]. The median effective dose (ED50) was above 1000 mg/kg in data set [7] and 2.6 mg/kg in data set [8].
On to `C/C(=C1/N=C2CN=C(c3ccccc3)c3cc(Cl)ccc3N2C1=O)N1CCNCC1`, for which the 50% effective dose (ED50) in data set [1] is 4 mg/kg; in data set [2] it was 5.2 mg/kg; in data set [3], above 20 mg/kg; in data set [4], above 50 mg/kg; in data set [5], above 50 mg/kg; in data set [6], above 50 mg/kg. Further, the figures for the ED50 in data set [7] and in data set [8] were above 1000 mg/kg and 14 mg/kg, respectively.
As to `CN1CCN(/C=C2\N=C3CN=C(c4ccccc4Cl)c4cc([N+](=O)[O-])ccc4N3C2=O)CC1` [LOPRAZOLAM], the median effective dose (ED50) in data set [1] came out at 0.028 mg/kg; in data set [2], 1 mg/kg; in data set [3] it was 0.42 mg/kg; in data set [4], 0.41 mg/kg; in data set [5] it was 1.1 mg/kg; in data set [6], 2.2 mg/kg. The ED50 was above 1000 mg/kg in data set [7] and 0.76 mg/kg in data set [8].
